Assay results from paper PMC11606603, “The membrane domains of mammalian adenylyl cyclases are lipid receptors” (eLife, 2024).
Where “and” joins values, the source holds several entries; their conditions need not be identical. Equal values may be shown once.

Key:
Type in all cases: biochemical
[1] = target: T1, mAC5 (Homo sapiens, UniProt O95622); assay: AC assay, Gsα-stimulated mAC5 in membranes from transfected HEK293 cells; conditions: 20µM fatty acid concentration
T1 construct: Human mAC genes were from GenScript and fitted with a C-terminal FLAG-tag; FLAG (C); made in house; host or cells: HEK293, permanently transfected; membrane preparation
Experimental: (§1) hAC sequences were from NCBI were: ADCY1: NM_021116.3; ADCY2: NM_020546.2; ADCY3: NM_004036.4; ADCY4: NM_001198568.2; ADCY5: NM_183357.2; ADCY6: NM_015270.4; ADCY7: NM_001114.4; ADCY8: NM_001115.2; ADCY9: NM_001116.3. Human mAC genes were from GenScript and fitted with a C-terminal FLAG-tag. […] The gene was synthesized by GenScript. HEK293 cells were maintained in Dulbeccos Modified Eagle Medium (DMEM) with 10% fetal bovine serum at 37°C and 5% CO2. Transfection with AC plasmids was with PolyJet (SignaGen, Frederick, MD, USA). Permanent cell lines were generated by selection for 7 days with 600 µg/ml G418 and maintained with 300 µg/ml For membrane preparation, cells were tyrpsinized, collected by centrifugation (3000 × g, 5 min) and lysed and homogenized in 20 mM HEPES, pH 7.5, 1 mM Ethylenediaminetetraacetic acid (EDTA), 2 mM MgCl2, 1 mM Dithiothreitol (DTT), one tablet of cOmplete, EDTA-free (per 50 ml) and 250 mM sucrose by 20 strokes in a potter homogenizer on ice. Debris was removed (5 min at 1000 × g, 0°C), membranes were collected at 100,000 × g, 60 min at 0°C, suspended and stored at −80°C in 20 mM MOPS, pH 7.5, 0.5 mM EDTA, 2 mM MgCl2. […] Three cerebral cortices were dissected and homogenized in 4.5 ml cold 48 mM Tris–HCl, pH 7.4, 12 mM MgC1_2, and 0.1 mM Ethylene glycol-bis(β-aminoethyl ether)-N,N,N′,N′-tetraacetic acid (EGTA) with a Polytron hand disperser (Kinematica AG, Switzerland). […] The pellet was washed once with 5 ml 1 mM KHCO3. The final suspension in 2 ml 1 mM KHCO3 was stored in aliquots at −80°C.
(§2) In a volume of 10 μl, AC activities were measured using 1 mM ATP, 2 mM MgCl2, 3 mM creatine phosphate, 60 μg/ml creatine kinase, and 50 mM MOPS pH 7.5. The cAMP assay kit from Cisbio (Codolet, France) was used for detection according to the supplier’s instructions. For each assay, a cAMP standard curve was established. EC50 and IC50 values were calculated by GraphPad Prism version 8.4.3 for Windows, GraphPad Software, San Diego, CA, USA, https://www.graphpad.com .

[2] = target: T2, mAC2 (Homo sapiens, UniProt Q08462); assay: AC assay, Gsα-stimulated mAC2 in membranes from transfected HEK293 cells; conditions: Figure 5-figure supplement 1 left, 20 µM
T2 construct: Human mAC genes were from GenScript and fitted with a C-terminal FLAG-tag; FLAG (C); made in house; host or cells: HEK293, permanently transfected; membrane preparation
Experimental: as §1, §2

[3] = target: T3, mAC6 (Homo sapiens, UniProt O43306); assay: AC assay, Gsα-stimulated mAC6 in membranes from transfected HEK293 cells; conditions: 20µM fatty acid concentration
T3 construct: Human mAC genes were from GenScript and fitted with a C-terminal FLAG-tag; FLAG (C); made in house; host or cells: HEK293, permanently transfected; membrane preparation
Experimental: as §1, §2

[4] = target: T4, mAC1 (Homo sapiens, UniProt Q08828); assay: AC assay, Gsα-stimulated mAC1 in membranes from transfected HEK293 cells
T4 construct: Human mAC genes were from GenScript and fitted with a C-terminal FLAG-tag; FLAG (C); made in house; host or cells: HEK293, permanently transfected; membrane preparation
Experimental: as §1, §2

[5] = target: T5, mAC3 (Homo sapiens, UniProt O60266); assay: AC assay, Gsα-stimulated mAC3 in membranes from transfected HEK293 cells; conditions: for Effect of lipid on 300 nM Gsα-stimulated mAC3: 20 µM, in words; for mAC3 activity [%] (100% = 300nM Gsα stimulation): fatty acid 20 µM, individual experiments
T5 construct: Human mAC genes were from GenScript and fitted with a C-terminal FLAG-tag; FLAG (C); made in house; host or cells: HEK293, permanently transfected; membrane preparation
T5 sequence (O60266 whole entry): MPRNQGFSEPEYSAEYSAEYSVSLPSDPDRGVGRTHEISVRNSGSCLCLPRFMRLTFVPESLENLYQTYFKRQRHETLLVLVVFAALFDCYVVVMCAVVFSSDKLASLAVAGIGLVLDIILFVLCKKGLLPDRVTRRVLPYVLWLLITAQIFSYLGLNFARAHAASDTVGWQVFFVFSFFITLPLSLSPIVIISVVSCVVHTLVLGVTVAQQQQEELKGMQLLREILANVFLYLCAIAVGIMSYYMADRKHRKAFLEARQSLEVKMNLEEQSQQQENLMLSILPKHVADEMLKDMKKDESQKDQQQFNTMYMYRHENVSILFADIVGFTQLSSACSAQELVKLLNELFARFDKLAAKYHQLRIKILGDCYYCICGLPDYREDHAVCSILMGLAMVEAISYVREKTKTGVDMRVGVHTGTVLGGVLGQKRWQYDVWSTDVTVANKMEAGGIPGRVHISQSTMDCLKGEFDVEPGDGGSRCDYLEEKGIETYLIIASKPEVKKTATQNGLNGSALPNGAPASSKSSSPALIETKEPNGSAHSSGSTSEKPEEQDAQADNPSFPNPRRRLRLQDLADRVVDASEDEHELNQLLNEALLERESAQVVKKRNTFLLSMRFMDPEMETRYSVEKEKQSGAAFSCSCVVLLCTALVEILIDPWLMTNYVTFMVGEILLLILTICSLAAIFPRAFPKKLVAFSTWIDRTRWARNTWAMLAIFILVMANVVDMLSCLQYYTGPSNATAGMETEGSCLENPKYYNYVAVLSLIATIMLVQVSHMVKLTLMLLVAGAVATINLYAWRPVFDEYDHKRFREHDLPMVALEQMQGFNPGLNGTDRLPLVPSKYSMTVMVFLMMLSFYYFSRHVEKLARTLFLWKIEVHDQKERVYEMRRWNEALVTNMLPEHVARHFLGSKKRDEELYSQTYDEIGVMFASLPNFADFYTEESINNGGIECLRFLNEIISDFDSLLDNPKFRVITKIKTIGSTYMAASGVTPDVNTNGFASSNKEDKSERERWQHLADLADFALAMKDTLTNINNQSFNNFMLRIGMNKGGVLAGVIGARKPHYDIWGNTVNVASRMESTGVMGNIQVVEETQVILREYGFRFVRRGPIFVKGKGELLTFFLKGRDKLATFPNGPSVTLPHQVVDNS
T5 sequence (P63092 whole entry Q227L partner): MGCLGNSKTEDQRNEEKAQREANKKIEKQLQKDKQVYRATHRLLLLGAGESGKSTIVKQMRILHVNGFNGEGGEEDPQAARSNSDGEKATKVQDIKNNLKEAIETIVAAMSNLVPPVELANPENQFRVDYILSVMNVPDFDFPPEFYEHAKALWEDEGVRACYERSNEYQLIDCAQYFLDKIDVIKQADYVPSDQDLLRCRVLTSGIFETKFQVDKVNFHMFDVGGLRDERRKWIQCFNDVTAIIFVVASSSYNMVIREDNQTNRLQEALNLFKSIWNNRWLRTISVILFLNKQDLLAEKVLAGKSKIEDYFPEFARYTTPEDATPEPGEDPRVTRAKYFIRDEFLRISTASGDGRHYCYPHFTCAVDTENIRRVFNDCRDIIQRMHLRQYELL
Experimental: as §1, §2

[6] = target: T6, mAC7 (Homo sapiens, UniProt P51828); assay: AC assay, Gsα-stimulated mAC7 in membranes from transfected HEK293 cells; conditions: Figure 5-figure supplement 2 left, 20 µM
T6 construct: Human mAC genes were from GenScript and fitted with a C-terminal FLAG-tag; FLAG (C); made in house; host or cells: HEK293, permanently transfected; membrane preparation
T6 sequence (P51828 whole entry): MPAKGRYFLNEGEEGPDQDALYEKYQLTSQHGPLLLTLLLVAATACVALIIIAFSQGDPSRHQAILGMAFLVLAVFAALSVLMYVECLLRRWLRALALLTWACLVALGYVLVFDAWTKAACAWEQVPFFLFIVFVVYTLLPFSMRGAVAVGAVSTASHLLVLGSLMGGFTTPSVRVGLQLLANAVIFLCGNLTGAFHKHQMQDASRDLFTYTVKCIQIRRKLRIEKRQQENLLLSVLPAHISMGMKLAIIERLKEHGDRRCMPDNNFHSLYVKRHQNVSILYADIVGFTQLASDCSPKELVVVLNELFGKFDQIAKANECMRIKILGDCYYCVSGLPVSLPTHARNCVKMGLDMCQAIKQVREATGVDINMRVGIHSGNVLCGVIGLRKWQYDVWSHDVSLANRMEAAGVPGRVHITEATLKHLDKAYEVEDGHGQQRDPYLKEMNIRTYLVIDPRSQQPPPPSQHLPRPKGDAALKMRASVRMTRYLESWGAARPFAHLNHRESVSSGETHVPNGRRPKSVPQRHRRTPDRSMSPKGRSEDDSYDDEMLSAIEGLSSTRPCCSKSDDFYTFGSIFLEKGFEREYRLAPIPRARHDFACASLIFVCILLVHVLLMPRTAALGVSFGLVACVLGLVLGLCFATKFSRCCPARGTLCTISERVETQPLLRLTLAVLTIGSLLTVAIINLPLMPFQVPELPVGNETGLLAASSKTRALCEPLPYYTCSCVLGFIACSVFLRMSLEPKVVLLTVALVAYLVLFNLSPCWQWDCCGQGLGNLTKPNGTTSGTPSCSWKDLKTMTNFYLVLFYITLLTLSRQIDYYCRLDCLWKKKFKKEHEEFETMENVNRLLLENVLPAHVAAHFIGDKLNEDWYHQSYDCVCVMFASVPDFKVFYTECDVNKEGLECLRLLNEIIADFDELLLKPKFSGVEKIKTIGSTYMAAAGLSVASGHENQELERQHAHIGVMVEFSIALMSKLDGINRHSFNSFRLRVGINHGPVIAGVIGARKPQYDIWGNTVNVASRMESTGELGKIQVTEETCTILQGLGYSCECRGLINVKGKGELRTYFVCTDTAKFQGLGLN
T6 sequence (P63092 2-394 Q227L partner): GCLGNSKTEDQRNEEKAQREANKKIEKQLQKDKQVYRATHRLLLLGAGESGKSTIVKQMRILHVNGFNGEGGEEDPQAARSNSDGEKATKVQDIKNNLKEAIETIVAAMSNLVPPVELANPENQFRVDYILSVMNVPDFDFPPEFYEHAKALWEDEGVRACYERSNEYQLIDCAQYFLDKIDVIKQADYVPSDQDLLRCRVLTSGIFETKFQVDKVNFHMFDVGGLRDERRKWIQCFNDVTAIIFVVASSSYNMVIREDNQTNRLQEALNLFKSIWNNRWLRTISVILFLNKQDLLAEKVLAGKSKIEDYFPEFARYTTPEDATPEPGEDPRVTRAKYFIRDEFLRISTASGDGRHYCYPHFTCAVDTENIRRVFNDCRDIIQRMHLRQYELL
Experimental: as §1, §2

[7] = target: T7, mAC9 (Homo sapiens, UniProt O60503); assay: AC assay, Gsα-stimulated mAC9 in membranes from transfected HEK293 cells; conditions: 300 nM Gsα, single experiments
T7 construct: Human mAC genes were from GenScript and fitted with a C-terminal FLAG-tag; FLAG (C); made in house; host or cells: HEK293, permanently transfected; membrane preparation
Experimental: as §1, §2

[8] = target: T8, mAC8 (Homo sapiens, UniProt P40145); assay: AC assay, Gsα-stimulated mAC8 in membranes from transfected HEK293 cells; conditions: 20µM fatty acid concentration
T8 construct: Human mAC genes were from GenScript and fitted with a C-terminal FLAG-tag; FLAG (C); made in house; host or cells: HEK293, permanently transfected; membrane preparation
T8 sequence (P40145 whole entry): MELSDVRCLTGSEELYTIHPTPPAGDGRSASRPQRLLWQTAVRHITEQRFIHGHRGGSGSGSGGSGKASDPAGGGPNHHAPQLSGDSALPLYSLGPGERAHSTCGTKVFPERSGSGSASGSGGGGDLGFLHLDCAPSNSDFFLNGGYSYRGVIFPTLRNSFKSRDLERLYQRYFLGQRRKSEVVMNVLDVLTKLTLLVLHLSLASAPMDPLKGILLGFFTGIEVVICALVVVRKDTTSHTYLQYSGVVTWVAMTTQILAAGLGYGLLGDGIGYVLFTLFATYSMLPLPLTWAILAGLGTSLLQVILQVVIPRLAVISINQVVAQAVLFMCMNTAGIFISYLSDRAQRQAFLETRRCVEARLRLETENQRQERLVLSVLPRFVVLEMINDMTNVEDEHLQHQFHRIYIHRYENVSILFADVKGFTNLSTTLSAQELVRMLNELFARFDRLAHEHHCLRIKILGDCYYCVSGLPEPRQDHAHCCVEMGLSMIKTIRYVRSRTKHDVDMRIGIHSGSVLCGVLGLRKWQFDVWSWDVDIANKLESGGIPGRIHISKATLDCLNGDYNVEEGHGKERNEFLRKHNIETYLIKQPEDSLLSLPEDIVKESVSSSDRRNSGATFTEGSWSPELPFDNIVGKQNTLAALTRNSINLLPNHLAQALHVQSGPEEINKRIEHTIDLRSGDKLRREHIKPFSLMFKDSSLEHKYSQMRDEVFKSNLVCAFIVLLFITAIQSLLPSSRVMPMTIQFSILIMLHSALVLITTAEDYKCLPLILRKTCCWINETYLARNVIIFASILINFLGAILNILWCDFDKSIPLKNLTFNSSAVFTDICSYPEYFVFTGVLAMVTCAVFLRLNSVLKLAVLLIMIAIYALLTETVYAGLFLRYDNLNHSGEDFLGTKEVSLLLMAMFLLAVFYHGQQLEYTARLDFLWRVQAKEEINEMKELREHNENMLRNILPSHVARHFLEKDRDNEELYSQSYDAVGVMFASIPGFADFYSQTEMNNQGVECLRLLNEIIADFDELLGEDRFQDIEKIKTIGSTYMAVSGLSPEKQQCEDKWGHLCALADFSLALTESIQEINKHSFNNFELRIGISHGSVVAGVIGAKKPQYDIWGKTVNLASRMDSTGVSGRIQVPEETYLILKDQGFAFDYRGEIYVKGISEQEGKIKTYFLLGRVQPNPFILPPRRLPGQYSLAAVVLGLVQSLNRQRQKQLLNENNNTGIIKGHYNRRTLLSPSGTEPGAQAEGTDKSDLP
Experimental: as §1, §2

[9] = target: T9, mAC4 (Homo sapiens, UniProt Q8NFM4); assay: AC assay, Gsα-stimulated mAC4 in membranes from transfected HEK293 cells
T9 construct: Human mAC genes were from GenScript and fitted with a C-terminal FLAG-tag; FLAG (C); made in house; host or cells: HEK293, permanently transfected; membrane preparation
T9 sequence (Q8NFM4 1-1077): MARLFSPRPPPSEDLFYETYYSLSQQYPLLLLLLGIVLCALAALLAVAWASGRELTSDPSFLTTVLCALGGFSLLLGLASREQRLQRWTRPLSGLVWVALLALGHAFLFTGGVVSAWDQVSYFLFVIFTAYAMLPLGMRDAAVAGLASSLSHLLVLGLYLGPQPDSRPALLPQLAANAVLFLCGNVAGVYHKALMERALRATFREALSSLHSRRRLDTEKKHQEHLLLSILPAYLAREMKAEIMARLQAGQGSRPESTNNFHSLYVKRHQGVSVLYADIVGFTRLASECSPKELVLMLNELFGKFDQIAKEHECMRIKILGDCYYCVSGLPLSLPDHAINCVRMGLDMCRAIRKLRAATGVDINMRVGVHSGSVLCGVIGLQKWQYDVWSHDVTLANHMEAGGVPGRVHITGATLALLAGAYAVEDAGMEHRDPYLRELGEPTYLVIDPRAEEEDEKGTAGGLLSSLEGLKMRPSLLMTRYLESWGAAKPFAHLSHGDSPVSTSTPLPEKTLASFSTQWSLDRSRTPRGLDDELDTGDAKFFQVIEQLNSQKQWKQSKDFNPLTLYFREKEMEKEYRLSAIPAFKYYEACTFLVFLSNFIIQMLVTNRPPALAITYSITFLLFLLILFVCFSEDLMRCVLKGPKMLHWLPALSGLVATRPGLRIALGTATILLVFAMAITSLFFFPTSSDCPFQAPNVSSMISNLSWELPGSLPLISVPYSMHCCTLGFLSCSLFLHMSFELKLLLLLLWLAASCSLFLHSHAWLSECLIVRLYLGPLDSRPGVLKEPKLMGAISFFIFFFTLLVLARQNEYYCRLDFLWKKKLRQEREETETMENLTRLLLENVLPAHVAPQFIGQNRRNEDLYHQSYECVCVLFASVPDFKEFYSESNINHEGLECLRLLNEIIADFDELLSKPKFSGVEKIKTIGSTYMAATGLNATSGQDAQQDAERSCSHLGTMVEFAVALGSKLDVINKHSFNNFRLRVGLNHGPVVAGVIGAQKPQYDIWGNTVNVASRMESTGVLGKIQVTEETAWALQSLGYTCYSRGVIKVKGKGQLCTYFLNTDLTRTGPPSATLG
Experimental: as §1, §2

SMILES	mAC5 activity [%] (100% = 300nM Gsα stimulation) [1]	mAC2 activity [%] (100% = 300nM Gsα stimulation); 20µM fatty acid concentration [2]	mAC6 activity [%] (100% = 300nM Gsα stimulation) [3]	mAC1 activity [%] (100% = 300nM Gsα stimulation); 20µM fatty acid concentration ([4]; 300 nM Gsα, single experiments)	Effect of lipid on 300 nM Gsα-stimulated mAC3 [5]	mAC3 activity [%] (100% = 300nM Gsα stimulation) [5]	mAC7 activity [%] (100% = 300nM Gsα stimulation); 20µM fatty acid concentration [6]	mAC9 activity (%);(100% = Gsα stimulation) stimulated by 300nM Gsα ([7]; 1 µM fatty acid)	mAC9 activity [%] (100% = 300nM Gsα stimulation); 20µM fatty acid concentration ([7]; 20 µM fatty acid)	mAC8 activity [%] (100% = 300nM Gsα stimulation) [8]	mAC4 activity [%] (100% = 300nM Gsα stimulation); 20µM fatty acid concentration ([9]; 300 nM Gsα, single experiments)	other results
CCCCCCCCCCCCCC(=O)O [Myristic acid, Myristic (tetradecanoic) acid]	105% and 80% and 76%	102% and 121% and 90% and 101%	98% and 72% and 83%	91% and 96% and 101%	no significant effect	90% and 108% and 224% and 226%	94% and 152% and 85% and 110%	82% and 122% and 127% and 109% and 126% and 137%	185% and 310% and 168% and 189% and 240%	119% and 130% and 99%	71% and 59% and 97%	mAC9 activity (%);(100% = Gsα stimulation) stimulated by 300nM Gsα ([7]; 3 µM fatty acid): 129% and 111% and 136% and 125%; mAC9 activity (%);(100% = Gsα stimulation) stimulated by 300nM Gsα ([7]; 6 µM fatty acid): 104% and 129% and 178% and 179% and 144% and 168%; mAC9 activity (%);(100% = Gsα stimulation) stimulated by 300nM Gsα ([7]; 10 µM fatty acid): 130% and 135% and 224% and 171% and 187% and 200% and 115%; mAC9 activity (%);(100% = Gsα stimulation) stimulated by 300nM Gsα ([7]; 20 µM fatty acid): 168% and 189% and 240% and 185% and 310%
CCCC/C=C\CCCCCCCC(=O)O [Myristoleic acid, Myristoleic ((9Z)-tetradecenoic) acid]	79% and 90% and 96%	106% and 81% and 89%	92% and 96%	90% and 103% and 77%	–	82% and 156% and 95%	92% and 95% and 67%	–	88% and 116% and 130%	62% and 117% and 101%	79% and 94% and 104%	–
CCCCCCCCCCCCCCCCCC [Octadecane]	82% and 128%	74% and 87%	80% and 141%	96% and 100%	–	67% and 79%	87% and 68%	–	70% and 95%	129% and 109%	71% and 92%	–
CCCCCC/C=C\CCCCCCCC(=O)O [Palmitoleic acid, Palmitoleic ((9Z)-hexadecenoic) acid]	99% and 92% and 101%	82% and 120% and 125%	71% and 89% and 68%	56% and 77% and 83% and 82% and 92%	less efficacious	151% and 133% and 248% and 259% and 116% and 136% and 292%	91% and 107% and 128%	136% and 130% and 125%	–	116% and 103% and 76%	58% and 74% and 53% and 64% and 83%	IC50 [4]: 49 µM; activity at 1 µM ([4]; 1 µM, 300 nM Gsα, single experiments, read-out: mAC1 activity (%);(100% = Gsα stimulation) stimulated by 300nM Gsα): 84%; activity at 6 µM ([4]; 6 µM, 300 nM Gsα, single experiments, read-out: mAC1 activity (%);(100% = Gsα stimulation) stimulated by 300nM Gsα): 97%; Effect of lipid on 300 nM Gsα-stimulated mAC1 ([4]; 20 µM, in words): somewhat less; activity at 25 µM ([4]; 25 µM, 300 nM Gsα, single experiments, read-out: mAC1 activity (%);(100% = Gsα stimulation) stimulated by 300nM Gsα): 50%; activity at 50 µM ([4]; 50 µM, 300 nM Gsα, single experiments, read-out: mAC1 activity (%);(100% = Gsα stimulation) stimulated by 300nM Gsα): 31%; activity at 0.1 µM ([4]; read-out: mAC1 activity (%);(100% = Gsα stimulation) stimulated by 300nM Gsα, 0.1 µM, 300 nM Gsα, single experiments (reference point, all 100)): 100%; Effect of lipid on 300 nM Gsα-stimulated mAC4 ([9]; 20 µM, in words): somewhat less; IC50 ([9]; attenuation of 300 nM Gsα-stimulated activity, read-out: IC50 for mAC4): 20 µM; activity at 0.1 µM ([9]; read-out: mAC4 activity (%);(100% = Gsα stimulation) stimulated by 300nM Gsα, 0.1 µM, 300 nM Gsα, single experiments (reference point, all 100)): 100%; activity at 25 µM ([9]; read-out: mAC4 activity (%);(100% = Gsα stimulation) stimulated by 300nM Gsα, 25 µM, 300 nM Gsα, single experiments): 49%; activity at 50 µM ([9]; read-out: mAC4 activity (%);(100% = Gsα stimulation) stimulated by 300nM Gsα, 50 µM, 300 nM Gsα, single experiments): 19%; activity at 60 µM ([9]; read-out: mAC4 activity (%);(100% = Gsα stimulation) stimulated by 300nM Gsα, 60 µM, 300 nM Gsα, single experiments): 75%; activity at 100 µM ([9]; read-out: mAC4 activity (%);(100% = Gsα stimulation) stimulated by 300nM Gsα, 100 µM, 300 nM Gsα, single experiments): 44%
